Source: BindingDB's records for doi:10.1016/j.chembiol.2017.01.003 (The University of Queensland, 2017)
pIC50: −log10 of the molar value.

Each molecule was assayed against T1, Transcription factor SOX-18 (Mouse, UniProt P43680) (assay: Fluorescence Polarization Assay). Conditions: pH 7.5; 37 °C.
T1 sequence (P43680 whole entry): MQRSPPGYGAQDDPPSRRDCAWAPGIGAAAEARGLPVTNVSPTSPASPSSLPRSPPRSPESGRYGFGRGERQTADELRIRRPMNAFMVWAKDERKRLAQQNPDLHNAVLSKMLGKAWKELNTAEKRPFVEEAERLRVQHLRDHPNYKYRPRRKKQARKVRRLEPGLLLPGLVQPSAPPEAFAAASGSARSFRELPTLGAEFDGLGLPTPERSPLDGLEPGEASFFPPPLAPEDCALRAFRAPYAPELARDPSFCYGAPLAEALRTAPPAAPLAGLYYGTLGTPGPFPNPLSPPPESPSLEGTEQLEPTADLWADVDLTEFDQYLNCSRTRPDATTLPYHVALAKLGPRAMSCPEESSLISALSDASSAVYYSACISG
Description: The DNA-binding competition assay was performed in 25 μL, in black 384-well plates, using either 30 mM HEPES (N-2-Hydroxyethylpiperazine-N'-2-Ethanesulfonic Acid) (pH 7.5, with 100 mM KCl, 40 mM NaCl, 10 mM NH4OAc, 10 mM Guanidinium, 2 mM MgCl2, 0.5 mM EDTA, 0.01% NP-40) for mouse full length SOX18, or Tris-NaCl (10 mM Tris pH 8.0 and 100 mM NaCl) for SOX-HMG fragments. All experiments were performed using a 40bp double-stranded Prox1-DNA element with 5' fluorescein amidite (FAM) label (Sigma Proligo or InVitrogen). Optimum binding levels were obtained at 200 nM of mouse full length SOX18 and 60 nM of SOX-HMG fragment, in presence of 5 nM labelled DNA. Controls consisted of free labelled DNA (low FP milli-Polarization index, mP), labelled DNA in presence of protein (negative control, high mP), and labelled DNA and protein in presence of 400 time competing excess of unlabelled DNA (positive control, low mP). Depending on compound, final DMSO concentrations ranged from 2 to 3.33% v/v. After mixing protein, DNA probe and compound, plates were sealed and briskly agitated in the dark for 5 minutes at room temperature, 10 minutes at 37 °C, and 30 minutes at room temperature, before reading fluorescencepolarization on a Tecan M1000Pro (λexc = 485 nm, λem = 525 nm). All experiments were performed intriplicates.

SMILES | pIC50
O=C(O)c1c(O)cccc1CCc1ccc2ccccc2c1 [Sm4] | 4.01
O=C(O)c1c(O)cccc1COCCC1C=CC=CC1 (stereo unspecified) [Sm5] | 2.96
COc1cccc(CCCCCCc2ccccc2)c1C(=O)O [Sm8] | 3.49

Continued, values first:

pIC50 | SMILES
2.42 | COc1ccc(OCC(=O)c2ccc(O)cc2O)cc1 [Sm11]
2.54 | O=C(COc1ccc2ccccc2c1)c1ccc(O)cc1O [Sm12]
3.32 | Cc1cccc2c(=O)c3c(O)cc(O)cc3oc12 [Sm13]
